One may read the MIC as the lowest concentration that inhibits growth of the organism.

Series [1] can be described thus: Circular dichroism, secondary structure content. Type of series: physicochemical. Particulars: 10 mM Tris-HCl, 100 mM NaCl, pH 8.5, 25 µM peptide, 25 °C. Here is the method: Circular dichroism spectra were recorded using a JASCO J-815 spectrometer (Easton, MD, USA) equipped with a Peltier Jasco model PTC-423 L temperature control system. Spectra were obtained using a quartz cuvette with a 1 cm optical path at a temperature of 25 °C, covering a wavelength range from 190 to 260 nm with eight consecutive scans per sample. The scan speed was set at 100 nm/min and the response time was 4 s. The bandwidth was 1 nm, and ellipticity readings were taken every 0.2 nm. The Lun-1 (25 µM), NP (0.155 mg·mL^−1), NP-Lun-EN (0.17 mg·mL^−1–25 µM of peptide concentration), and NP-Lun-EC (0.18 mg·mL^−1–25 µM of peptide concentration) samples were (corresponding to 25 µM of peptide in NP-Lun-EN and NP-Lun-EC) suspended in 10 mM Tris-HCl buffer solution at pH 8.5 containing 100 mM NaCl or in 200 µM POPC:POPG (3:1, mol:mol) LUVs suspended in the same buffer solution. Data processing and deconvolution calculations to obtain the contents of secondary structures were carried out using the CDpro® program.

The test system of series [2] is Staphylococcus aureus (ATCC29213). Put plainly: Antibacterial assay, MIC (broth microdilution, resazurin). It counts as cell-based. Particulars: Mueller-Hinton broth, CLSI M07-A9, 1:2 serial dilution from 128.5 μM, 37 °C 20 h, resazurin read-out, triplicate; conjugates dosed as peptide concentration. Here is the method:
(§1) The peptide Lun-1 and the peptide-conjugated nanoparticles (Lun-EN and Lun-EC) were investigated against […] bacterial strains—Pseudomonas aeruginosa, Staphylococcus aureus, Acinetobacter, Escherichia coli, and Streptococcus agalactiae, all from American Type Culture Collection (Manassas, VA, USA). Details can be found in the SM. […]
(§2) phase at 35 °C and subsequently transferred to Mueller-Hinton broth according to the guidelines established by the M07 -A9 CLSI. Methods for the dilution antimicrobial susceptibility tests for b acteria that grow aerobically were from the Approved Standard—Ninth Edition. CLSI document M07 -A9. Wayne, PA: Clinical and Laboratory Standards Institute; 2012. Bacterial suspensions were adjusted to the turbidity equivalent to 0.5 McFarland standard ([…]), by spectrophotometric measurement at 625 nm (Bel Photonics S2000 UV, São Paulo, Brazil).
(§3) The suspension was then diluted 1:20, and 50 μL aliquots were distributed into 96-well flat-bottom microplates (Nümbrecht, Germany).
(§4) Chloramphenicol (30 μg·mL⁻¹; 92.8 μM) was used as standard drug and served as positive control for growth bacterial inhibition. Wells containing 50 μL of bacterial inoculum and 50 μL of sterile culture medium were used as negative controls. Free peptides were tested at a maximum concentration of 128.5 μM and diluted via serial dilution (1:2) up to seven times in Mueller–Hinton broth. For the nanoparticle– peptide conjugations concentration s were adjusted according to the degree of functionalization to ensure accurate dosing of the active peptide component.
(§5) Plates were incubated at 37 °C for 20 hours. After incubation, 30 μL of a 0.01% (w/v) resazurin solution (10-oxido -7 -oxophenoxazin-10 -ium -3 -olate; Sigma -Aldrich, St. Louis, MO, USA) was added to each well. Plates were protected from light and incubated for an additional 4 hours to allow colorimetric development. The tests whose bacteria did not develop a pink color after incubation (maintaining the blue coloration) were […]

Series [3] has as its system Streptococcus agalactiae (ATCC 29313). The description is as above. It counts as cell-based. Particulars: Mueller-Hinton broth, CLSI M07-A9, 1:2 serial dilution from 128.5 μM, 37 °C 20 h, resazurin read-out, triplicate; conjugates dosed as peptide concentration. As for the experimental part: as §1, §2, §3, §4, §5
(In general: The colour change of resazurin is a common sign of viable cells or microbes.)

The test system of series [4] is Acinetobacter (ATCC17978). The description is as above. Type of series: cell-based. Particulars: Mueller-Hinton broth, CLSI M07-A9, 1:2 serial dilution from 128.5 μM, 37 °C 20 h, resazurin read-out, triplicate; conjugates dosed as peptide concentration. Here is the method: as §1, §2, §3, §4, §5
Series [5] deals with Pseudomonas aeruginosa (ATCC27853). The series is described as above. It counts as cell-based. To be noted: Mueller-Hinton broth, CLSI M07-A9, 1:2 serial dilution from 128.5 μM, 37 °C 20 h, resazurin read-out, triplicate; conjugates dosed as peptide concentration. Here is the method: as §1, §2, §3, §4, §5
Series [6] relates to Escherichia coli (ATCC25922). The description is as above. Type of series: cell-based. Particulars: Mueller-Hinton broth, CLSI M07-A9, 1:2 serial dilution from 128.5 μM, 37 °C 20 h, resazurin read-out, triplicate; conjugates dosed as peptide concentration. As for the experimental part: as §1, §2, §3, §4, §5
Series [7] in a line: Zeta potential. Particulars: 0.2 mg·mL^−1 in 10 mM Tris-HCl, pH 8.0, 100 mM NaCl; 25 °C; mean of triplicate ± SD. Type of series: physicochemical. As for the experimental part: Zeta potential and Hydrodynamic Diameter measurements were performed at room temperature (or 25 °C) on a Zetasizer Nano instrument (Malvern® ZS model BI-900, Worcestershire, UK). A 700 µL Malvern® cuvette (model DTS1061) was used for the analysis. The measurements were conducted, utilizing monochromatic light scattering (10 mW Ne laser, λ = 632.4 nm), with the light intensity measured at a 90° angle. Zeta potential (z) were carried out at 0.2 mg·mL^−1 of NP, NP-OH, NP-NH2, NP-Lun-EN, and NP-Lun-EC dispersed in a 10 mM Tris-HCl buffer, pH 8.0, containing 100 mM NaCl.

The test system of series [8] is Staphylococcus aureus. Put plainly: Bacterial cell death kinetics (time-kill). Type of series: cell-based. Particulars: S. aureus in MH broth, 10^5 CFU·mL^−1, tested at 0.5×, 2×, 4× MIC over 12 h, triplicate. Here is the method:
Bacterial time-kill assays were performed in triplicate, following the methodology of ref. [43] with minor modifications. Staphylococcus aureus was cultured in Mueller–Hinton (MH) broth at an initial concentration of […] and exposed to free peptides and peptide-functionalized nanobiostructures at concentrations corresponding to 0.5×, 1×, 2×, and 4× the MIC (minimum inhibitory concentration). Samples were collected at defined time intervals: 0, 0.5, 1, 2, 4, 6, 8, 10, and 12 h. Cell viability was assessed using the microdrop method described by Romeiro (2001). Serial dilutions of the bacterial suspensions (10^−1, 10^−2, and 10^−3) were prepared, and 5 µL aliquots from each dilution were plated onto brain–heart infusion (BHI) agar. Plates were incubated for up to 12 h, after which colony counts were performed. The number of colony-forming units (UFC) was calculated by multiplying the colony count by the reciprocal of the dilution factor, and results were expressed as UFC·mL^−1. This approach provided quantitative data on the time–dependent bactericidal activity of both the free peptides and nanoparticle-conjugated formulations.

With NP-NtermEAAA-Lun-1 [NP-Lun-EN], the “a-helical percentage (CD deconvolution)” value in series [1] (in buffer, CDpro) was 35%. In series [1] (in buffer, CDpro), the “β-sheet percentage (CD deconvolution)” value was 45%. Further, the “α-helix content (CD deconvolution)” value in series [1] (in presence of 200 µM POPC:POPG (3:1) LUVs) was determined as 40%. For the same substance, the minimum inhibitory concentration (MIC) is 64.2 µM in series [2]; 128.5 µM in series [3]; “did not exhibit activity” in series [4]; “did not exhibit activity” in series [5]; 128.5 µM in series [6]. For the same substance, the ζ-potential entry in series [7] is “+6.7 ± 0.9 mV”. Besides, in series [8], the “concentrations giving sustained reduction in viable cells without regrowth” value was 2 × MIC and 4 × MIC.

These data come from publication PMC12299903 (Pharmaceuticals, 2025).
